Assays:
Type in all cases: in vivo
[1] = tested on: southern root-knot nematode (Meloidogyne incognita); assay: Example 3: cup test, contaminated soil mixed with test agents, cucumber seeds, control value from root knot index; details: compound alone, 26th day after seeding, =100−the root knot index
Procedure: Soil contaminated with southern root-knot nematode (Meloidogyne incognita) was put in a 200 ml polypropylene cup, and predetermined amounts of test agents were added and mixed. Immediately after the addition of the test agents, the mixture was thoroughly mixed and then seeded with three seeds of cucumber. On the 26th day after seeding, the root knot index (0 to 100%) formed by nematode was visually determined.
As the test results, from the root knot index based on the root knot index in the non-treated area being 100, the control value (=100−the root knot index) was calculated, and the results are shown in Tables 3 and 4. Further, a theoretical value obtained by the Colby's formula (=Control value of compound A+Control value of compound B−((Control value of compound A×Control value of compound B)/100)) is also shown in brackets ( ) in Tables 3 and 4.

[2] = tested on: southern root-knot nematode (Meloidogyne incognita); assay: Test Example 1: immersion of second stage juveniles in chemical solution, mobility inhibition; details: compound alone, 24 hours, 25° C.
Procedure: About 50 larvae at second stage juveniles of southern root-knot nematode (Meloidogyne incognita) were immersed in a chemical solution diluted to a predetermined concentration with distilled water and kept for 24 hours in a constant temperature room at 25° C. […] From these values, the mobility inhibition rate was determined by the following formula.
Mobility inhibition rate (%)=[1-{(1-B/A)/(1-B′/A′)}]×100
Further, a theoretical value (%) of the mobility inhibition rate was calculated by the Colby's formula and is also shown in brackets ( ) in Table 1. The measured value (%) of the mobility inhibition rate is higher than the theoretical value (%), and thus, the composition of the present invention has a synergistic effect for controlling nematode.

[3] = tested on: southern root-knot nematode (Meloidogyne incognita); assay: Example 2: pot test, contaminated soil mixed with test agents, tomato seedlings, root knot index; details: compound alone, 35th day after transplantation, non-treated area being 100
Procedure: 1 Liter of sand soil obtained by mixing paddy steam sterilization soil, sand soil and soil contaminated with southern root-knot nematode (Meloidogyne incognita) in a volume ratio of 2:2:1, was put into a 1/1,000,000 ha pot, and predetermined amounts of test agents were added and mixed, Immediately after addition of the test agents, the mixture was sufficiently mixed, and then, seedlings of tomato (cultivar: kyoryoku bei ju) were transplanted. On the 35th day after transplantation, the root knot index (0 to 100%) formed by nematode was visually determined. The test was carried out by two replications.
Further, a theoretical value determined by the Colby's formula is shown in brackets ( ) in Table 2.

SMILES | Control value ([1]; 125 g/ha) | Control value ([1]; 188 g/ha) | Control value ([1]; 250 g/ha) | Control value ([1]; 375 g/ha) | Control value ([1]; 500 g/ha) | inhibition at 0.31 ppm ([2]; Meloidogyne incognita, 0.31 ppm, read-out: Mobility inhibition rate (%)) [%] | inhibition at 0.63 ppm ([2]; Meloidogyne incognita, 0.63 ppm, read-out: Mobility inhibition rate (%)) [%] | inhibition at 1.25 ppm ([2]; Meloidogyne incognita, 1.25 ppm, read-out: Mobility inhibition rate (%)) [%] | inhibition at 2.5 ppm ([2]; Meloidogyne incognita, 2.5 ppm, read-out: Mobility inhibition rate (%)) [%] | inhibition at 5 ppm ([2]; Meloidogyne incognita, 5 ppm, read-out: Mobility inhibition rate (%)) [%] | Average root knot index ([3]; 3000 g/ha) | Control value ([1]; 200 g/ha) | Mobility inhibition rate (%) ([2]; 0.31 ppm) | Mobility inhibition rate (%) ([2]; 0.63 ppm) | Mobility inhibition rate (%) ([2]; 1.25 ppm) | Mobility inhibition rate (%) ([2]; 2.5 ppm) | Mobility inhibition rate (%) ([2]; 5 ppm) | Average root knot index ([3]; 2500 g/ha)
CCOP(=O)(SC(C)CC)N1CCSC1=O (stereo not drawn) [Fosthiazate, fosthiazate] | 70.0 | 73.3 | 83.3 | 90.0 | 90.0 | 0.2 | 15 | 22.7 | 55.7 | 96.2 | 11.4 |  |  |  |  |  |  | 
O=S(=O)(CCC(F)=C(F)F)c1ncc(Cl)s1 [Fluensulfone, fluensulfone] |  |  |  |  |  |  |  |  |  |  |  | 73.3 | 36.4 | 41.7 | 48.1 | 54.7 | 69.1 | 25.7

Reference: patent US20170354152A1, “PESTICIDAL COMPOSITION AND METHOD FOR CONTROLLING PESTS” (priority 2015, published 2017)
